According to patent publication US8796429B2, “Bioactive lipid derivatives, and methods of making and using same” (Lpath, Inc., priority 2006, dated 2014):
Entries after “also recorded” stand apart in the source; their conditions may differ. Blank lines part the entries; values can stand above or below the molecule they belong to.

What was measured:
human cancer cell lines = experiment: LPA-induced cancer cell proliferation; format: cell-based; details: LPA 0.01 mM to 10 mM; SKOV3, OVCAR3, Panc-1, Caki-1, DU-145, A549, HCT-116; also rat RBL-2H3
Procedure: LPA is a potent growth factor supporting cell survival and proliferation by stimulation of Gi, Gq and G12/13 via GPCR-receptors and activation of downstream signaling events. Cell lines were tested for their proliferative response to LPA ([…]). Cell proliferation was assayed by using the cell proliferation assay kit from Chemicon (Temecula Calif.) (Panc-1) and the Cell-Blue titer from Pierce (Caki-1). Each data point is the mean of three independent experiments. […] Even though tumor-derived cells normally have high basal levels of proliferation, LPA appears to further augment proliferation in most tumor cell lines. Anti-LPA mAbs (B7 and B58) were assessed for the ability to inhibit LPA-induced proliferation in selected human cancer cell lines.

SKOV3 cells = experiment: Taxol-induced apoptosis (caspase activity); format: cell-based, human
Procedure: The ability of LPA to protect ovarian tumor cells against apoptosis when exposed to clinically-relevant levels of the chemotherapeutic agent, paclitaxel (Taxol) was investigated. SKVO3 cells were treated with 1% FBS (S), Taxol ([…]), +/− anti-LPA mAbs for 24 h. […] Apoptosis was assayed by measurement of the caspase activity as recommended by the manufacturer (Promega). As anticipated, LPA protected most of the cancer cell lines tested from taxol-induced cell death. […] Moreover, the anti-LPA antibody was able to remove the protection provided by serum. Serum is estimated to contain about […] LPA. […] Taxol-induced caspase activation was enhanced by the addition of all 3 of the anti-LPA mAbs to the culture medium.

Caki-1 cells = experiment: LPA-induced IL-8 release, ELISA of supernatants; format: cell-based, human; details: 18:1 LPA 0.2 mM, cells without mAb, 24 h
Procedure: Three anti-LPA mAbs (B3, B7 and B58) were tested for their abilities to reduce in vitro IL-8 production compared to a non-specific antibody (NS). Caki-1 cells were seeded in 96 well plates and grown to confluency. After overnight serum starvation, cells were treated with 18:1 LPA (0.2 mM) with or without anti-LPA mAb B3, B7, B58 or NS (Non-Specific). After 24 h, cultured supernatants of renal cancer cells (Caki-1), treated with or without LPA and in presence of increasing concentrations of the anti-LPA mAbs B3, B7 and B58, were collected and analyzed for IL-8 levels using a commercially available ELISA kit (Human Quantikine Kit, R&D Systems, Minneapolis, Minn.). […] Similar results were obtained with the other well-known pro-angiogenic factor, VEGF. The inhibition of IL-8 release by the anti-LPA mAbs was also observed in other cancerous cell lines such as the pancreatic cell line Panc-1.

[1] = Direct ELISA, chimeric antibody and mutants binding to S1P; details: for Binding: antibody 0.1 ug/ml, optical density at 450 nm
Procedure: Microtiter ELISA plates (Costar) were coated overnight with S1P diluted in 1 M Carbonate Buffer (pH 9.5) at 37° C. for 1 hr. Plates were washed with PBS (137 mM NaCl, 2.68 mM KCl, 10.1 mM Na2HPO4, 1.76 mM KH2PO4; pH 7.4) and blocked with PBS/BSA/Tween-20 for 1 hr at room temp or overnight at 4° C. For the primary incubation (1 hr at room temp.), a standard curve using the anti-S1P mAb and the samples to be tested for binding was built using the following set of dilutions: 0.4 μg/mL, 0.2 μg/mL, 0.1 μg/mL, 0.05 μg/mL, 0.0125 μg/mL, and 0 μg/mL, and 100 μl added to each well. Plates were washed and incubated with 100 μl per well of HRP conjugated goat anti-mouse (1:20,000 dilution) (Jackson Immuno Research) or HRP conjugated goat anti-human (H+L) diluted 1:50,000 (Jackson Immuno Research) for 1 hr at room temperature. After washing, the enzymatic reaction was detected with tetramethylbenzidine (Sigma) and stopped by adding 1 M H2SO4. The optical density (OD) was measured at 450 nm using a Thermo Multiskan EX. Raw data were transferred to GraphPad software for analysis.
The chromogenic reaction was measured and reported as Optical density (OD). The concentration of the panel of antibodies was 0.1 ug/ml. No interaction of the second antibody with S1P-coated matrix alone was detected.

[2] = Competitive ELISA, specificity of anti-S1P mAb (free lipid competes with plate-bound S1P); format: binding; details: competitor free S1P
Procedure: Screening of serum and cell supernatant for S1P-specific antibodies was by direct ELISA using the thiolated S1P analog described in Example 1 (i.e., compound 10) as the antigen. A standard ELISA was performed, as described below, except that 50 ul of sample (serum or cell supernatant) was diluted with an equal volume of PBS/0.1% Tween-20 (PBST) during the primary incubation. ELISAs were performed in 96-well high binding ELISA plates (Costar) coated with 0.1 μg of chemically-synthesized compound 10 conjugated to BSA in binding buffer (33.6 mM Na2CO3, 100 mM NaHCO3; pH 9.5). The thiolated-S1P-BSA was incubated at 37° C. for 1 hr. at 4° C. overnight in the ELISA plate wells. The plates were then washed four times with PBS (137 mM NaCl, 2.68 mM KCl, 10.14 mM Na2HPO4, 1.76 mM KH2PO4; pH 7.4) and blocked with PBST for 1 hr. at room temperature. For the primary incubation step, 75 uL of the sample (containing the S1P to be measured), was incubated with 25 uL of 0.1 ug/mL anti-S1P mAb diluted in PBST and added to a well of the ELISA plate. […] Optical density of the samples was determined by measurement at 450 nm using an EL-X-800 ELISA plate reader (Bio-Tech).
For cross reactivity, a competitive ELISA was performed as described above, except for the following alterations (FIG. 4). […] Biotin incorporation was determined as per kit protocol and ranged from 7 to 11 biotin molecules per antibody. […]

[3] = Competitive ELISA, specificity of anti-S1P mAb; format: binding
Procedure: Screening of serum and cell supernatant for S1P-specific antibodies was by direct ELISA using the thiolated S1P analog described in Example 1 (i.e., compound 10) as the antigen. A standard ELISA was performed, as described below, except that 50 ul of sample (serum or cell supernatant) was diluted with an equal volume of PBS/0.1% Tween-20 (PBST) during the primary incubation. ELISAs were performed in 96-well high binding ELISA plates (Costar) coated with 0.1 μg of chemically-synthesized compound 10 conjugated to BSA in binding buffer (33.6 mM Na2CO3, 100 mM NaHCO3; pH 9.5). The thiolated-S1P-BSA was incubated at 37° C. for 1 hr. at 4° C. overnight in the ELISA plate wells. The plates were then washed four times with PBS (137 mM NaCl, 2.68 mM KCl, 10.14 mM Na2HPO4, 1.76 mM KH2PO4; pH 7.4) and blocked with PBST for 1 hr. at room temperature. For the primary incubation step, 75 uL of the sample (containing the S1P to be measured), was incubated with 25 uL of 0.1 ug/mL anti-S1P mAb diluted in PBST and added to a well of the ELISA plate. Each sample was performed in triplicate wells. Following a 1 hr. incubation at room temperature, the ELISA plates were washed four times with PBS and incubated with 100 ul per well of 0.1 ug/mL HRP goat anti-mouse secondary (Jackson Immunoresearch) for 1 hr. at room temperature. Plates were then washed four times with PBS and exposed to tetramethylbenzidine (Sigma) for 1-10 minutes. The detection reaction was stopped by the addition of an equal volume of 1M H2SO4. Optical density of the samples was determined by measurement at 450 nm using an EL-X-800 ELISA plate reader (Bio-Tech).
For cross reactivity, a competitive ELISA was performed as described above, except for the following alterations (FIG. 4). The primary incubation consisted of the competitor (S1P, SPH, LPA, etc.) and a biotin-conjugated anti-S1P mAb. Biotinylation of the purified monoclonal antibody was performed using the EZ-Link Sulfo-NHS-Biotinylation kit (Pierce). Biotin incorporation was determined as per kit protocol and ranged from 7 to 11 biotin molecules per antibody. […]

[4] = ELISA with exchanged crosslinker or protein carrier in the laydown material; format: binding
Description: For example, the normal crosslinker SMCC was exchanged for IOA in conjugating the thiolated-S1P to BSA as the laydown material in the ELISA. […] Similarly, KLH was exchanged for BSA as the protein that was complexed with thiolated-S1P as the laydown material.

Binding [1]: 1.6 OD
Molecule: MetLeu

competition for mAb binding to S1P on the plate [2]: can compete for binding
competition for mAb binding to S1P on the plate ([3]; competitor DH-S1P): can compete for binding
binding characteristics, laydown with KLH instead of BSA ([4]; KLH complexed with thiolated-S1P): no significant difference
binding characteristics, laydown with IOA instead of SMCC ([4]; thiolated-S1P conjugated to BSA, compared with BSA-SMCC-thiolated-S1P): nearly identical
B1: anti-S1P mAb: murine IgG1 kappa monoclonal antibody against S1P from hybridoma clone 306D326.26 (ATCC SD-5362) (antibody, listed as Mus musculus, V domains shown)
VH: QAHLQQSDAELVKPGASVKISCKVSGFIFIDHTIHWMKQRPEQGLEWIGCISPRHDITKYNEMFRGKATLTADKSSTTAYIQVNSLTFEDSAVYFCARGGFYGSTIWFDFWGQGTTLTVS
VL: ETTVTQSPASLSMAIGEKVTIRCITTTDIDDDMNWFQQKPGEPPNLLISEGNILRPGVPSRFSSSGYGTDFLFTIENMLSEDVADYYCLQSDNLPFTFGSGTKLEIK
discrimination of thiolated-S1P analog from natural S1P ([3]; competition experiment): unable to distinguish
competition for mAb binding to S1P on the plate ([3]; competitor SPC (phosphate linked with choline)): somewhat reduced; also recorded: only slightly competes for binding

The next lines start with the molecule.

Molecule: lysophosphatidic acid [LPA]
proliferative response to LPA (human cancer cell lines): increased proliferation
protection from Taxol-induced apoptosis (SKOV3 cells; Taxol 0.5 mM, 24 h): protected SKVO3 cells from Taxol-induced apoptosis
increase of IL-8 expression (Caki-1 cells): 100%

Molecule: CC(=O)O[C@H]1C(=O)[C@@]2(C)[C@H]([C@H](OC(=O)c3ccccc3)[C@]3(O)C[C@H](OC(=O)[C@H](O)[C@@H](NC(=O)c4ccccc4)c4ccccc4)C(C)=C1C3(C)C)[C@]1(OC(C)=O)CO[C@@H]1C[C@@H]2O [Taxol, paclitaxel]
caspase-3,7 activation (SKOV3 cells; SKOV3 cells): induced caspase-3,7 activation

Molecule: CysPhe
binding to S1P compared with the chimeric antibody ([1]; ELISA, substitution of Cys 50 in heavy chain CDR2): did not alter the binding
Binding [1]: 2 OD
